Data published in patent US20240316008A1, “TREATMENT OF SYSTEMIC IMMUNE ACTIVATION SYNDROMES” (TRANQUIS THERAPEUTICS, INC., priority 2020, published 2024).

System: IL-6
Experiment: IL-6 secretion from LPS-stimulated BV2 cells (CBA assay)
Format: cell-based, murine
Conditions: 100 ng/ml LPS, 1 μM-20 μM, 24 hours
Method: LPS was used to induce cytokine secretion from BV-2 cells. Cells were incubated with TQS-168 at various concentrations to assess whether TQS-168 could suppress the LPS-promoted release of various cytokines from in vitro cell cultures. Cytokine secretion was measured by cytometric bead array (CBA) fluorescence-activated cell sorting (FACS). Briefly, a vial of BV2 frozen stock (1 million cells per ml in complete medium) was thawed into 10 mL of complete medium per vial for a total of 4 vials. The vials were then centrifuged at 1800 rpm for 3 minutes to wash away freezing media. The four vials were then pooled into 25 mL of complete medium. TQS-168 was prepared in DMSO. Cells were incubated for 24 hours in the presence of medium (negative control), LPS (positive control), DMSO+LPS (positive control, controlling additionally for presence of DMSO in the TQS-168 stock solution), or LPS+TQS-168 at final concentrations of 1 μM, 5 μM, 10 μM, and 20 μM. After the well plates were incubated overnight for 24 hours, they were centrifuged at 1800 rpm for 5 minutes. Next, 150 μl from each well was transferred to a new set of plates, of which 50 μl was used for CBA. The plates were then centrifuged with the cells, followed by addition of 100 μl of DAPI (50 ml of PBS+10 μl of DAPI stock at 1:5000 dilution). […]

CC(C)(C)c1ccc(-c2nc3ccccc3[nH]2)cc1 [TQS-168, 2-(4-tert-butylphenyl)-1H-benzimidazole]
LPS-induced secretion of IL-6: reduce
